Results from paper PMC6161018, “Synthesis, Structure–Activity Relationships and In Vitro Toxicity Profile of Lactose-Based Fatty Acid Monoesters as Possible Drug Permeability Enhancers” (Pharmaceutics, 2018).
“And” between values parts separate entries of the source, which are not always exact repeats. Equal values may be shown once.

Tests used:
[1] = Surface tension measurements (tensiometry), CMC determination; assay type: physicochemical; conditions: for Amin (minimum area per surfactant molecule): air-water interface, calculated from Γmax; for γCMC (surface tension at CMC) / CMC (critical micelle concentration): in water, room temperature; for CMC (critical micelle concentration): straight-line interception method; for Γmax × 10^−6 (maximum surface excess): values × 10^−6, Gibbs equation from surface tension plot
Description: Surface tension of different concentrations of surfactant solutions in water was measured using a platinum cylindrical rod probe with wetted length of 1.6 mm (K100-Krüss force tensiometer, Hamburg, Germany) at room temperature. Approximately 1 mL of each surfactant solution was placed onto a Teflon plate and the surface of the liquid was aspirated to remove any remaining impurities. Then, the rod probe was immersed 2 mm into the liquid. Data are expressed as the mean of three repeated measurements performed at room temperature. The critical micelle concentration and the surface tension at the CMC (γCMC) were calculated through the straight-line interception method, while the Gibbs surface excess (Γmax) was calculated from the following equation:(1) Γmax=1/2.303 × n × R × T (δγ/δlogC) where T is the absolute temperature, R is the gas constant (8.314 J/mol K), C is the surfactant concentration, n = 1 for a non-ionic candidate. δγ/δlogC was calculated from the maximum slope of the plot surface tension vs. surfactant concentration in the linear region before CMC.
The minimum area per surfactant molecule at the air-water interface (Amin) was determined as follow:(2) Amin= 10^18/N × Γmax where N is the Avogadro number.

Caco-2 cells [2] = test: MTT cell viability assay; assay type: cell-based; conditions: Caco-2, 24 h exposure, 50% reduction of viable cells; for IC50: Homo sapiens
Description: (§1) Caco-2 and Calu-3 cells were seeded in sterile 96-well culture plates at a density of 3 × 10^4 cells per well. The cells were incubated to attain at least 80% confluence before the experiment. Stock solutions of surfactants were prepared in phosphate buffered saline (PBS). They were diluted at various concentrations (from 0.0078 to 1 mg/mL) in cell culture medium before added to the cells. Complete culture media were used as control. The cytotoxic effect of each surfactant was evaluated using the MTT cell viability assay. After 24 h of incubation, surfactant solution was discarded and replaced by MTT solution (0.8 mg/mL). The cells were subjected to MTT treatment for 2 h. Formazan crystals formed were then dissolved in absolute isopropanol and incubated with gentle shaking at room temperature for 15 min. Absorbance was measured at 570 nm using a microplate reader (Multiskan™ GO Microplate Spectrophotometer Thermo Scientific, Waltham, MA, USA). Percentage of viable cells was calculated using untreated cells as control with 100% cell viability. The percentage of viable cells was plotted against log concentration of the surfactants. IC50 (mg/mL), the concentration of surfactant that caused a 50% reduction in cell viability was calculated by fitting the experimental data with dose–response model (Prism 6, Version 6.0b, GraphPad Software).

Calu-3 cells [3] = test: MTT cell viability assay; assay type: cell-based; conditions: Calu-3, 24 h exposure, 50% reduction of viable cells; for IC50: Homo sapiens
Description: as §1

Caco-2 cells [4] = test: Lactate dehydrogenase (LDH) release assay; assay type: cell-based; conditions: Caco-2, 24 h exposure, 50% release of LDH
Description: (§2) Caco-2 and Calu-3 cells were seeded in sterile 96-well culture plates at a density of 3 × 10^4 cells per well. Surfactant solutions (at the same concentration as in MTT assay described above) were added to the cells and incubated at 37 °C for 24 h. Triton X-100 at 1% v/v was used as positive control. LDH release assay was conducted according to the manufacturer’s protocol. The percentage of released LDH was calculated relative to the controls by taking samples treated with Triton X-100 as complete LDH release and untreated cells as nil LDH release.
(§3) The concentration of surfactant that caused a 50% release of LDH (IC50, mM), was calculated by fitting the experimental data with dose–response model (Prism 6, Version 6.0b, GraphPad Software).

Calu-3 cells [5] = test: Lactate dehydrogenase (LDH) release assay; assay type: cell-based; conditions: Calu-3, 24 h exposure, 50% release of LDH; for IC50: Homo sapiens
Description: as §2, §3

Calu-3 cell monolayer = test: Trans-epithelial electrical resistance (TEER) measurement; assay type: cell-based; conditions: Calu-3 monolayer, apical, 2 h, applied at MTT IC50 and at highest 100% viability concentration
Description: (§4) Caco-2 and Calu-3 cells were seeded at a density of 2 × 10^5 cells per well on filter inserts (Transwell® Permeable Support 12 mm Insert, Corning Life Sciences, Tewksbury, MA, USA) and cultured to confluence under air-liquid interface conditions. Culture media on the baso-lateral sides of the cells were changed every 24 h. For TEER measurements, culture medium was discarded from the cell layer and replaced with Kreb’s Balanced Saline Solutions (KBSS) on both the apical and baso-lateral sides of the monolayers. Cell layers were allowed equilibrating in KBSS at 37 °C, 5% CO2 for 45 min prior to sample application. Baseline TEER was measured before the treatment with surfactants. For each surfactant, concentrations that caused 50% cell viability, and the highest concentration that maintained 100% cell viability (according to the MTT assay) were added to the apical sides of the cell layers and incubated for 2 h. TEER was then measured at 5, 30, 60, 90 and 120 min after surfactant addition. Between TEER measurements, cells were incubated at normal cell culture conditions. After 120 min, surfactant was removed, and culture media were added to both sides of the filter inserts. TEER measurement was conducted again after 24 h to evaluate the recovery of cell monolayers. A volt-ohmmeter (Millcell® ERS-2 Voltohmmeter, Millipore, Burlington, MA, USA) equipped with a pair of electrodes was used for TEER measurement. Baseline TEER measured from cell layers incubated in KBSS was used as control and the change in TEER was presented as a percentage relative to baseline value. Three independent experiments were performed in duplicate.

Caco-2 cell monolayer = test: as above; assay type: cell-based; conditions: Caco-2 monolayer, apical, 2 h; applied at MTT IC50 and at highest 100% viability concentration
Description: as §4

Caco-2 cells [6] = test: Mitochondrial membrane potential (JC-1 assay); assay type: cell-based; conditions: Caco-2, 24 h in HBSS, same concentrations compared
Description: (§5) Caco-2 and Calu-3 cells were seeded in sterile 96 well plates at a density of 1 × 10^4 cells per well and cultured for 24 h. As above, surfactant solutions were applied in Hank’s balanced salt solution (HBSS) for 24 h. One millimolar FCCP was employed as the positive, mitochondrial depolarizing control. Following exposure, treatments were removed and cells were washed twice with PBS prior to the addition of 50 µL (5 µg/mL) JC-1 dye diluted in complete DMEM (without antibiotics) per well for 15 min at 37 °C. Dye solution was then removed and wells washed with PBS followed by addition of 50 µL/well PBS prior to measuring fluorescence at 550/600 nm (λex/λem) for detection of JC-1 J-aggregates and 485/535 nm (λex/λem) for detection of JC-1 monomers. A ratio between JC-1 aggregates and JC-1 monomer signals was then taken, and data normalized by setting the untreated control as a value of 1.0 and the positive control (1.0 mM FCCP) as a value of 0.0.

Calu-3 cells [7] = test: Mitochondrial membrane potential (JC-1 assay); assay type: cell-based; conditions: Calu-3, 24 h in HBSS, same concentrations compared
Description: as §5

Amin (minimum area per surfactant molecule) [1]	γCMC (surface tension at CMC) [1]	CMC (critical micelle concentration) [1]	γCMC (surface tension at CMC) ([1]; listed as lactose caprate)	Γmax × 10^−6 (maximum surface excess) [1]	IC50 (Caco-2 cells [2])	IC50 (Calu-3 cells [3])	IC50 (Caco-2 cells [4]; Homo sapiens, Caco-2, 24 h)	IC50 (Calu-3 cells [5])	γCMC (surface tension at CMC) ([1]; listed as lactose laurate)	IC50 (Caco-2 cells [4])	Compound	MTT Assay IC50 (Caco-2 cells [2])	MTT Assay IC50 (Calu-3 cells [3])	LDH Assay IC50 (Caco-2 cells [4])	LDH Assay IC50 (Calu-3 cells [5])	effect on TEER (Calu-3 cell monolayer)	effect on TEER (Calu-3 cell monolayer; listed as lactose caprate)	effect on TEER (Caco-2 cell monolayer)	mitochondrial membrane potential (J-aggregates:J-monomers ratio) (Caco-2 cells [6])	mitochondrial membrane potential (J-aggregates:J-monomers ratio) (Calu-3 cells [7])
17.46 ± 0.25 Å^2	40.6 ± 0.04 mN/m	2.58 ± 0.32 mM	around 40 mN/m	9.52 ± 0.11 mol/m^2	> 2000 µM	> 2000 µM	> 2000 µM	> 2000 µM			CCCCCCCCCC(=O)OC[C@H]1O[C@@H](O[C@H]2[C@H](O)[C@@H](O)[C@@H](O)O[C@@H]2CO)[C@H](O)[C@@H](O)[C@H]1O [Lactose caprate, 6′-O-Decanoyl-4-O-(β-D-galactopyranosyl)-D-glucopyranose]	higher than the tested concentration range	higher than the tested concentration range	higher than the tested concentration range	higher than the tested concentration range	more significant decrease in TEER in Calu-3 cells compared to Caco-2 cells	only slightly affected the TEER			
17.45 ± 0.09 Å^2	40.4 ± 0.02 mN/m	0.55 ± 0.02 mM		9.52 ± 0.05 mol/m^2	376 µM	1070 µM	597 µM	452 µM	around 40 mN/m		CCCCCCCCCCCC(=O)OC[C@H]1O[C@@H](O[C@H]2[C@H](O)[C@@H](O)[C@@H](O)O[C@@H]2CO)[C@H](O)[C@@H](O)[C@H]1O [Lactose laurate, 6′-O-Dodecanoyl-4-O-(β-D-galactopyranosyl)-D-glucopyranose]					most effective surfactant in decreasing the TEER at both tested concentrations		moderate reduction of TEER		
19.86 ± 0.80 Å^2	45.6 ± 0.19 mN/m	0.14 ± 0.05 mM		8.37 ± 0.46 mol/m^2	112 µM	261 µM	194 µM	189 µM			CCCCCCCCCCCCCC(=O)OC[C@H]1O[C@@H](O[C@H]2[C@H](O)[C@@H](O)[C@@H](O)O[C@@H]2CO)[C@H](O)[C@@H](O)[C@H]1O [Lactose myristate, 6′-O-Tetradecanoyl-4-O-(β-D-galactopyranosyl)-D-glucopyranose]									
25.69 ± 0.43 Å^2	45.1 ± 0.33 mN/m	0.08 mM and 0.08 ± 0.03 mM		6.46 ± 0.11 mol/m^2	60 µM	122 µM	194 µM	142 µM		163 µM	CCCCCCCCCCCCCCCC(=O)OC[C@H]1O[C@@H](O[C@H]2[C@H](O)[C@@H](O)[C@@H](O)O[C@@H]2CO)[C@H](O)[C@@H](O)[C@H]1O [Lactose palmitate, 6′-O-Esadecanoyl-4-O-(β-D-galactopyranosyl)-D-glucopyranose]								highest cytotoxic effect	highest cytotoxic effect
